Data reported in patent publication US7928210B2, “Nucleoside based proliferation imaging markers” (Siemens Medical Solutions USA, Inc., priority 2007, dated 2011).
Entries after “also recorded” stand apart in the source; their conditions may differ.

Columns and labels:
A431 tumor bearing mice = test: In vivo imaging of A431 tumor bearing mice (clearance, tumor localization, tumor ratios); parameters: species or system mouse; settings: for Type of Clearance / Localization within the tumor: in vivo (rodents), A431 tumor; for Ratio T/B: tumor to background, p.i. 45 min; for Ratio T/M: tumor to muscle
[1] = cited from earlier work
[2] = target: T1, human thymidine kinase 1 (hTK1) (Homo sapiens, UniProt P04183); test: hTK-1 kinase phosphorylation, metabolites monitored by LC/MS-SIM; settings: in vitro
T1 sequence (P04183 1-234): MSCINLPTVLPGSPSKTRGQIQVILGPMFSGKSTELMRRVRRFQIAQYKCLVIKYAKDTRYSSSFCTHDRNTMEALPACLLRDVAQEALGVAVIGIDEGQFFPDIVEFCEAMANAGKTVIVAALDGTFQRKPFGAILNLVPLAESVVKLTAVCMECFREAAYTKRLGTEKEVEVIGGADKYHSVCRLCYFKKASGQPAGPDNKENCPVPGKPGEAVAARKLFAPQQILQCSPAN

[3] = system: A431 cell line (human skin epidermoid carcinoma, high S phase); test: Cancer cell uptake, A431; settings: (i) A431
[4] = system: SK-N-MC cell line (human brain neuroepithelioma, high S phase); test: Cancer cell uptake, SK-N-MC; settings: for Cell Uptake: (ii) SK-N-MC; for Uptake and intracellular retention: SK-N-MC cells in vitro
DNA = test: Incorporation into DNA compared against FMAU; assay type: cell-based; settings: data not shown
[5] = system: A172 cell line (human brain glioblastoma, low S phase); test: Cancer cell uptake, A172; settings: for Cell Uptake: (iii) A172; for Uptake and intracellular retention: A172 cells in vitro
Balb/3T12-3 cells = test: Cell uptake, Balb/3T12-3; settings: for Cell Uptake: (iv) Balb/3T12-3; for Uptake and intracellular retention: BalB/3T12-3 cells in vitro
[6] = system: normal mouse liver cells (AML12); test: Liver cell uptake by LC/MS-SIM, normal mouse liver cells; assay type: cell-based; settings: AML12, in vitro
Description: (§1) The mouse liver cell uptake of a small number of thymidine analogs was higher than FLT and thymidine, and the levels of human liver cell uptake were similar to FLT and thymidine. Ideally, low levels of liver cell uptake help increase the tumor to background ratios in the PET image. Furthermore, we examined the metabolic profile of the leads (Ta-1, Ta-4, and Ta-10) in vitro using normal mouse liver cell line (AML12) and human liver cancer cell line (HepG2).

[7] = system: human liver cancer cells (HepG2); test: Liver cell uptake by LC/MS-SIM, human liver cancer cells; assay type: cell-based; settings: HepG2, in vitro
Description: as §1

Structure (SMILES)	Type of Clearance (A431 tumor bearing mice)	Pi % (phosphorylation percentage) [2]	Localization within the tumor (A431 tumor bearing mice)	Cell Uptake [3]	Cell Uptake [4]	Cell Uptake [5]	other results
Cc1cn([C@H]2CC(F)[C@@H](CO)O2)c(=O)[nH]c1=O (stereo partly shown) [FLT, 3′-[^18F]fluoro-3′-deoxythymidine, reference compound]	Clear through renal system; localize within the tumor	31%					Injected dose per gram in tumors, on average ([1]; background section): 5%
Cc1cn([C@H]2CC(n3cc(CF)nn3)[C@@H](CO)O2)c(=O)[nH]c1=O (stereo partly shown) [FLT-Click-1]	Clear very rapidly from the blood; localize mainly in the bladder	6.1%					
Cc1cn([C@H]2CC(F)[C@@H](CO)O2)c(=O)n(Cc2cn(CCF)nn2)c1=O (stereo partly shown) [FLT-Click-2]	Clear through the gut/ hepatobiliary system; localize moderately within the tumor	4.5%	≤ 1 % ID/g	0.003	0.080		Ratio T/B (A431 tumor bearing mice): 1.75 (T/B; (p.i. 45 min)
O=c1[nH]c(=O)n([C@H]2CC(O)[C@@H](CO)O2)cc1-c1cn(CCF)nn1 (stereo partly shown) [FLT-Click-3]	Clear through the gut; but did not localize within the tumor	0%					Ratio T/B (A431 tumor bearing mice): 1.1 (T/B; p.i. 45 min)
Cc1cn([C@@H]2O[C@H](CO)C(O)C2F)c(=O)[nH]c1=O (stereo partly drawn) [FMAU, 1-(2′-deoxy-2′-[^18F]fluoro-β-D-arabinofuranosyl)-5-methyluracil, reference compound]		80%		0.012	0.011	0.015	Incorporation into DNA (DNA): very high; Type of Clearance ([1]; known / literature (Sun et al. 2005 for FMAU; 11C label for thymidine)): Hepatobiliary clearance^c
Cc1cn([C@H]2CC(O)[C@@H](CO)O2)c(=O)n(Cc2cn(CCF)nn2)c1=O (stereo partly shown) [Ta-1]	despite rapid gut clearance, a small percentage of the inject dose penetrated and localized within the tumor; also recorded: Clear through the gut/ hepatobiliary system; localize mainly in the gut; a small percentage of the inject dose penetrate and localize within the tumor	65.6%	≤ 1 % ID/g	0.045	0.081	0.042	Ratio T/M (A431 tumor bearing mice; p.i. 50 min): 2.1 (T/M; p.i. 50 min); Uptake and intracellular retention [5]: favorably taken up and retained intracellularly; Cell Uptake (Balb/3T12-3 cells): 0.064; Uptake and intracellular retention (Balb/3T12-3 cells): favorably taken up and retained intracellularly; Uptake and intracellular retention [4]: favorably taken up and retained intracellularly
Cc1cn([C@H]2CC(O)[C@@H](CO)O2)c(=O)n(Cc2cn(Cc3cc(F)ccn3)nn2)c1=O (stereo partly shown) [Ta-2]		39.2%		0.019	0.030	0.071	Cell Uptake (Balb/3T12-3 cells): 0.090
Cc1cn([C@H]2CC(O)[C@@H](CO)O2)c(=O)n(Cc2cn([C@H](C(=O)NCc3cc(F)ccn3)C(C)C)nn2)c1=O (stereo partly shown) [Ta-3]	large localization of the tracer in the gut and clearance through the bowels; also recorded: Clear through the bowels; localize mainly in the gut	25.5%		0.004	0.059	0.093	Cell Uptake (Balb/3T12-3 cells): 0.117
Cc1cn([C@H]2CC(O)[C@@H](CO)O2)c(=O)n(CCF)c1=O (stereo partly shown) [Ta-4, 3-N-(2′-[^18F]fluoroethyl)-thymidine]	has less liver uptake than Ta-1, localizes more strongly within the A-431 based tumor and possesses a clearance mechanism similar to FLT; also recorded: Less liver uptake than Ta-1; localize more strongly within the A431 based tumor; possess a clearance mechanism similar to FLT	77.4%	2-3.5 % ID/g	0.172	0.218	0.142	Ratio T/M (A431 tumor bearing mice; p.i. 50 min): 2.3 (T/M; p.i 50 min); Liver cell uptake [6]: less than Ta-1; Liver cell uptake [7]: less than Ta-1; Incorporation into DNA (DNA): substantially lower; Uptake and intracellular retention [5]: favorably taken up and retained intracellularly; Uptake and intracellular retention (Balb/3T12-3 cells): favorably taken up and retained intracellularly; Uptake and intracellular retention [4]: favorably taken up and retained intracellularly
Cc1cn([C@H]2CC(O)[C@@H](CO)O2)c(=O)n(Cc2cn(Cc3cccc(Br)c3)nn2)c1=O (stereo partly shown) [Ta-4D]		51.9%					
Cc1cn([C@H]2CC(F)[C@@H](CO)O2)c(=O)n(CCF)c1=O (stereo partly shown) [Ta-4F]		9.2%		0.075	0.063	0.067	
Cc1cn([C@H]2CC(O)[C@@H](CO)O2)c(=O)n(CCn2cc(CF)nn2)c1=O (stereo partly shown) [Ta-5]		10.2%		0.068	0.072	0.051	
Cc1cn([C@H]2CC(F)[C@@H](CO)O2)c(=O)n(CCF)c1=O (stereo partly shown) [Ta-6]		4.5%		0.023	0.007	0.004	
Cc1cn([C@@H]2O[C@H](CO)C(O)C2OCCF)c(=O)[nH]c1=O (stereo partly shown) [Ta-7]	Clear through the gut/ hepatobiliary system; localize mainly in the gut; a small percentage of the inject dose penetrate and localize within the tumor	5.6%	≤ 1 % ID/g	0.027	0.083	0.004	Ratio T/M (A431 tumor bearing mice; time not given): 1.05 (T/M)
Cc1cn([C@@H]2O[C@H](CO)C(O)C2O)c(=O)n(CCF)c1=O (stereo partly shown) [Ta-8]	Clear through the renal system; localize moderately within the tumor	18.2%	≤ 1 % ID/g	0.052	0.097	0.018	Ratio T/M (A431 tumor bearing mice; time not given): 0.99 (T/M)
Cc1cn([C@@H]2O[C@H](CO)C(O)C2F)c(=O)n(CCF)c1=O (stereo partly shown) [Ta-9]		1.4%		0.027	0.014	0.009	
Cc1cn([C@H]2CC(O)[C@@H](CO)O2)c(=O)n(CC(O)CF)c1=O (stereo partly shown) [Ta-10]	Clear through the gut/renal system; localize moderately within the tumor	27.5%	≤ 1 % ID/g	0.023	0.031	0.017	Ratio T/M (A431 tumor bearing mice; time not given): 0.35 (T/M); Incorporation into DNA (DNA): substantially lower
Cc1cn([C@@H]2O[C@H](CO)C(O)C2O)c(=O)n(CCF)c1=O (stereo partly shown) [Ta-11]	Clear through the renal system; localize moderately within the tumor	9.8%	≤ 1 % ID/g	0.03	0.02	0.006	Ratio T/M (A431 tumor bearing mice; time not given): 0.52 (T/M)
Cc1cn([C@H]2CC(O)[C@@H](CO)O2)c(=O)n(CCCF)c1=O (stereo partly shown) [Ta-14]							Incorporation into DNA (DNA): substantially lower
Cc1cn([C@H]2CC(O)[C@@H](CO)O2)c(=O)n(Cc2cn([C@H](C(=O)NCc3ccccc3)C(C)C)nn2)c1=O (stereo partly shown) [Ta-6233]		71.5%					
